Experimental data: article PMC11420244, “Evaluation of the effect of modafinil on the pharmacokinetics of encorafenib and binimetinib in patients with BRAF V600-mutant advanced solid tumors” (Cancer Chemotherapy and Pharmacology, 2024)
“Also recorded” adds a separate entry of the source. Where two headings read alike, the source gives them in different places.

Legend:
UGT1A1 = settings: cited from earlier work
[1] = Phase 1 clinical DDI study: steady-state plasma PK (noncompartmental analysis) with and without modafinil; assay type: in vivo, Human; settings: for AUC(0-t) / half-life / Cmax: human
Procedure: Encorafenib 450 mg QD and binimetinib 45 mg BID were administered starting on Day 1. Patients then received continuous treatment of 400 mg QD modafinil on Day 15 through Day 21. Blood samples for measurement of plasma concentrations of encorafenib (and its metabolite, LHY746) and binimetinib (and its active metabolite, AR00426032), were collected at 0, 1, 2, 3, 4, 6 and 8 h post dose on Day 14 and Day 21.
Human PK plasma samples were analyzed for quantitation of all PK analytes at PPD (Middleton, Wisconsin, US) using validated, sensitive, and specific HPLC/MS/MS methods in compliance with laboratory SOPs.
PK parameters including, but not limited to, Cmax and AUClast were calculated for each participant using noncompartmental analysis (NCA) methods using the WinNonlin software package (Phoenix WinNonlin Professional, version 8.0 Pharsight Corporation, Mountain View, California) for PK analytes including encorafenib and its metabolite LHY746, and binimetinib and its metabolite AR00426032.
All patients who received at least one dose of any study drug were included in the Safety Set population. The Evaluable PK Set included all patients with sufficient concentration data to calculate at least one PK parameter for encorafenib and binimetinib on Days 14 and 21. Patients who discontinued, missed 3 or more consecutive doses of encorafenib prior to completion of the last PK sampling on Day 14, or required a dose reduction of encorafenib prior to completion of the last PK sampling on Day 14 were excluded from the Evaluable PK set. In addition, patients who missed any dose of study drugs on any of the PK days, or who vomited within 4 h after dosing on any of the PK days were excluded from Evaluable PK set.
An analysis of variance (ANOVA) was performed on the natural log (ln)-transformed Cmax and AUClast of encorafenib, LHY746, binimetinib, and AR00426032. The least squares means (LSM) geometric mean ratio (GMR) and associated 90% confidence interval (CI) for each PK parameter were calculated using the exponentiation of the difference between treatment LSM from the analyses on the ln-transformed parameters and expressed as a percentage of Day 21 relative to Day 14.

[2] = Day 21 (with modafinil) relative to Day 14 (without)
[3] = Day 21, with modafinil 400 mg QD, steady state, plasma, patients

AUClast GMR (geometric mean ratio) [1, 2]: 0.957
Cmax GMR (geometric mean ratio) [1, 2]: 1
Cmax GMR (geometric mean ratio) ([1]; Day 21 (with modafinil) relative to Day 14 (without), listed as binimetinib): 1.00
Cmax, Median (range) [1, 3]: 686 (424–923) ng/mL
Tmax, Median (range) [1, 3]: 1.00 (0.95–2.10) hr
Effect of steady-state modafinil on exposure/PK (in words) ([1]; Day 21 vs Day 14, modafinil 400 mg QD): similar; also recorded: no change
Time at which mean plasma concentrations typically reach peak levels, postdose ([1]; Days 14 and 21, steady state): 1 h
AUC(0-t) ([1]; plasma, oral, 400 mg, Day 21, with modafinil 400 mg QD, steady state, plasma, patients, read-out: AUClast, GM (CV%)): 2290 ng·h/mL
AUC(0-t) ([1]; plasma, oral, 400 mg, Day 21, with modafinil 400 mg QD, steady state, plasma, patients, read-out: AUClast, Median (range)): 2430 ng·h/mL
half-life ([1]; plasma, oral, 400 mg, Day 21, with modafinil 400 mg QD, steady state, plasma, patients, read-out: T1/2, GM (CV%) (converted)): 4.55 h
half-life ([1]; plasma, oral, 400 mg, Day 21, with modafinil 400 mg QD, steady state, plasma, patients, read-out: T1/2, Median (range) (converted)): 4.47 h
AUC(0-t) ([1]; plasma, oral, Day 14, without modafinil, steady state, plasma, patients, read-out: AUClast, GM (CV%)): 2400 ng·h/mL
AUC(0-t) ([1]; plasma, oral, Day 14, without modafinil, steady state, plasma, patients, read-out: AUClast, Median (range)): 2670 ng·h/mL
Cmax ([1]; plasma, oral, Day 14, without modafinil, steady state, plasma, patients, read-out: Cmax, Median (range)): 609 ng/mL
half-life ([1]; plasma, oral, Day 14, without modafinil, steady state, plasma, patients, read-out: T1/2, GM (CV%) (converted)): 4.62 h
half-life ([1]; plasma, oral, Day 14, without modafinil, steady state, plasma, patients, read-out: T1/2, Median (range) (converted)): 5.15 h
Cmax ([1]; plasma, po, Day 14, without modafinil, steady state, encorafenib 450 mg QD + binimetinib 45 mg BID oral, plasma, patients, read-out: Cmax, GM (CV%)): 660 ng/mL
Cmax ([1]; plasma, po, Day 21, with modafinil 400 mg QD Days 15-21, steady state, encorafenib 450 mg QD + binimetinib 45 mg BID oral, plasma, patients, read-out: Cmax, GM (CV%)): 663 ng/mL
SMILES: Cn1cnc2c(F)c(Nc3ccc(Br)cc3F)c(C(=O)NOCCO)cc21 [Binimetinib, binimetinib]
Contribution of UGT1A1-mediated metabolism to metabolism (UGT1A1): up to 61%
